# Experimental data as given in patent US7731985B2, “4-aminopyrimidines and their use for the antimicrobial treatment of surfaces” (Ciba Specialty Chemicals Corporation, priority 2002, dated 2010).
# Assays:
# Experiment in all cases: MIC in microtitre plates (Example 10)
# Format in all cases: cell-based
# Set-up in all cases: unit not given here
# Details in all cases: microtitre plate, 48 hours at 37° C., ≦20% growth
# [1] = test system: Pseudomonas aeruginosa CIP A-22 (=PA)
# Description: (§1) Determination of the Minimum Inhibitory Concentration (MIC Value) in Microtitre Plates Casein/soymeal peptone broth for preparation of pre-cultures of test bacteria and yeast Bacteria: • Pseudomonas aeruginosa CIP A-22 (=PA) • Escherichia coli NCTC 8196 (=EC) • Staphylococcus aureus ATCC 9144 (=SA) • Candida albicans ATCC 10231 (=CA) The test substances are pre-dissolved in dimethyl sulfoxide (DMSO) and tested in a dilution series of 1:2. Bacteria and yeast are cultured overnight in CASO broth. All the test organism suspensions are adjusted to an organism count of 1-5×10^6 CFU/ml using […] sodium chloride solution. The test substances are pre-pipetted into microtitre plates in amounts of 8 μl per well. The pre-adjusted organism suspensions are diluted 1:100 in CASO broth and are added in amounts of 192 μl per well to the test substances. The test batches are incubated for 48 hours at 37° C. The incubation, the growth is determined on the basis of the turbidity of the test batches (optical density) at 620 nm in a microplate reader. The minimum inhibitory concentration (MIC value) is the concentration of substance at which (compared to the growth of the control) an appreciable inhibition of growth (≦20% growth) of the test organisms is observed. Three microtitre plates are used for each test organism and substance concentration. All the substances are tested in duplicate.
# [2] = test system: Staphylococcus aureus ATCC 9144 (=SA)
# Description: as §1
# [3] = test system: Candida albicans ATCC 10231 (=CA)
# Description: as §1
# [4] = test system: Escherichia coli NCTC 8196 (=EC)
# Description: as §1
SMILES,MIC PA [1],MIC SA [2],MIC CA [3],MIC EC [4]
CCCCCCCCCCCCNc1cc(C)nc(-c2cccs2)n1 [compound 86],<120,15,7.5,15
CCCCCCCCCCCCNc1cc(C)nc(-c2ccccc2)n1 [compound 87],<120,15,7.5,15
CCCCCCCCCCCCNc1cc(C)nc(-c2ccncc2)n1 [compound 88],<120,15,7.5,15
CCCCCCCCCCCCNc1cc(C)nc(C)n1 [compound 89],>120,<3.75,<3.75,<3.75
CCCCCCCCCCCCNc1cc(C)nc(-c2cccc(N)c2)n1 [compound 90],>120,7.5,<3.75,15
CCCCCCCCCCCCNc1cc(C)nc(-c2ccc(C)cc2)n1 [compound 91],>120,30,15,30
CCCCCCCCCCCCNc1cc(C)nc(C2CC2)n1 [compound 92],>120,<3.75,7.5,15
CCCCCCCCCCCCNc1cc(C)nc(C(C)C)n1 [compound 93],>120,<3.75,7.5,15
CCCCCCCCCCCCNc1cc(C)nc(-c2csc(C)n2)n1 [compound 94],>120,<3.75,7.5,15
CCCCCCCCCCCCNc1cc(C)nc(-c2ccc(C)c(F)c2)n1 [compound 95],>120,15,15,30
CCCCCCCCCCNc1cc(C)nc(-c2ccc(-c3ccccc3)cc2)n1 [compound 96],>120,15,15,30
CCCCCCCCCCNc1cc(C)nc(-c2ccc(-c3ccccc3)cc2)n1 [compound 97],>120,7.5,15,15
CCCCCCCCCCNc1cc(C)nc(-c2cccs2)n1 [compound 98],>120,15,15,15
CCCCCCCCCCNc1cc(C)nc(-c2ccccc2)n1 [compound 99],>120,15,30,15
CCCCCCCCCCNc1cc(C)nc(-c2ccncc2)n1 [compound 100],>120,15,15,15
CCCCCCCCCCNc1cc(C)nc(C)n1 [compound 101],>120,7.5,7.5,7.5
CCCCCCCCCCNc1cc(C)nc(-c2cccc(N)c2)n1 [compound 102],>120,7.5,15,30
CCCCCCCCCCNc1cc(C)nc(-c2ccc(C)cc2)n1 [compound 103],>120,15,30,60
CCCCCCCCCCNc1cc(C)nc(C2CC2)n1 [compound 104],>120,<3.75,7.5,7.5
CCCCCCCCCCNc1cc(C)nc(C(C)C)n1 [compound 105],>120,7.5,7.5,15
CCCCCCCCCCNc1cc(C)nc(-c2csc(C)n2)n1 [compound 106],>120,<3.75,15,15
CCCCCCCCCCNc1cc(C)nc(-c2ccc(C)c(F)c2)n1 [compound 107],>120,7.5,15,15
CCCCCCNc1cc(C)nc(-c2ccc(-c3ccccc3)cc2)n1 [compound 108],>120,30,>120,>120
CCCCCCNc1cc(C)nc(-c2ccc(C(C)(C)C)cc2)n1 [compound 109],>120,15,30,60
CCCCCCNc1cc(C)nc(-c2cccs2)n1 [compound 110],>120,60,120,>120

SMILES,MIC PA [1],MIC SA [2],MIC CA [3],MIC EC [4]
CCCCCCNc1cc(C)nc(-c2ccccc2)n1 [compound 111],>120,7.5,60,120
CCCCCCNc1cc(C)nc(-c2ccncc2)n1 [compound 112],>120,15,30,120
CCCCCCNc1cc(C)nc(C)n1 [compound 113],>120,7.5,30,120
CCCCCCNc1cc(C)nc(-c2cccc(N)c2)n1 [compound 114],>120,15,30,>120
CCCCCCNc1cc(C)nc(-c2ccc(C)cc2)n1 [compound 115],>120,7.5,120,>120
CCCCCCNc1cc(C)nc(C2CC2)n1 [compound 116],>120,7.5,15,60
CCCCCCNc1cc(C)nc(C(C)C)n1 [compound 117],>120,15,30,120
CCCCCCNc1cc(C)nc(-c2csc(C)n2)n1 [compound 118],>120,7.5,15,60
CCCCCCNc1cc(C)nc(-c2ccc(C)c(F)c2)n1 [compound 119],>120,7.5,120,>120
CCCCCCNc1cc(C)nc(-c2ccc(N)cc2)n1 [compound 120],>120,30,30,120
CCCCN(CCCC)c1cc(C)nc(-c2ccncc2)n1 [compound 121],>120,30,>120,>120
CCCCN(CCCC)c1cc(C)nc(-c2csc(C)n2)n1 [compound 122],>120,30,120,>120
CCCCN(C)c1cc(C)nc(-c2ccc(C(C)(C)C)cc2)n1 [compound 123],>120,120,>120,>120
CCCCN(C)c1cc(C)nc(-c2cccs2)n1 [compound 124],>120,60,60,120
CCCCN(C)c1cc(C)nc(-c2ccncc2)n1 [compound 125],>120,120,120,>120
CCCCN(C)c1cc(C)nc(C)n1 [compound 126],>120,120,120,>120
CCCCN(C)c1cc(C)nc(C2CC2)n1 [compound 127],>120,60,60,>120
CCCCN(C)c1cc(C)nc(C(C)C)n1 [compound 128],>120,120,120,>120
CCCCN(C)c1cc(C)nc(-c2csc(C)n2)n1 [compound 129],>120,120,120,>120
CCCCN(C)c1cc(C)nc(-c2ccc(C)c(F)c2)n1 [compound 130],>120,120,>120,>120
CCCCC(CC)CNc1cc(C)nc(-c2ccc(C(C)(C)C)cc2)n1 (stereo not shown) [compound 131],>120,120,>120,>120
CCCCC(CC)CNc1cc(C)nc(-c2cccs2)n1 (stereo not shown) [compound 132],>120,60,>120,>120
CCCCC(CC)CNc1cc(C)nc(-c2ccccc2)n1 (stereo not shown) [compound 133],>120,15,>120,>120
CCCCC(CC)CNc1cc(C)nc(-c2ccncc2)n1 (stereo not shown) [compound 134],>120,7.5,120,>120
